Laboratory results published in US8067583B2, “Method for synthesizing furanosteroids” (Trustees of Dartmouth College, priority 2006, dated 2011).

What was measured:
PI3K-Beta = PI3K-Beta (Homo sapiens, UniProt P42338); assay: activity against PI3K-Beta; assay type: biochemical
Excerpt: Novel furanosteroids produced according to the present method can be screened for biological activity using any conventional method. For example, PI3 kinase assays are disclosed by Yuan, et al. ((2005) Bioconjugate Chem, 16 (3): 669-675) and Fruman, et al. ((1999) Science 283:393-7). Assays for monitoring the assembly of peptide-MHC class II complexes (Song, et al. (1997) International Immunology 9:1709-1722) and mast cell exocytosis (Marquardt, et al. (1996) J. Immunol. 156:1942-1945) are known in the art as are assays for monitoring cell proliferation.

[1] = storage stability of isolated isomers; assay type: physicochemical
Method: A solution of 50.0 mg (0.136 mmol, 1.0 eq) of aldehyde 18 in 13.6 mL of dry CH2Cl2 was stirred in a 25 mL round bottom flask at room temperature under argon. To this solution was slowly added 271 μL (1.0 M in CH2Cl2, 0.271 mmol, 2.0 eq) of TiCl4. […] The solution was then diluted with CH2Cl2 and washed with H2O. The aqueous portion was then extracted three times with CH2Cl2. The combined organic fractions were then dried over MgSO4 and concentrated. Purification via silica gel chromatography (hexane/EtOAc) gave 20.4 mg (59%) of the syn-isomer 19-Syn and 5.4 mg (16%) of the anti-isomer 19-Anti as unstable brown oils. […] The decomposition was of a general nature and none of the stable, known retro-aldol product was observed.

PI3-kinase = details: read-out: IC50, inhibitor of PI3-kinase; cited from earlier work
[2] = molecular target: mammalian Polo-like kinase (Homo sapiens, UniProt P53350); details: cited from earlier work
mammalian Polo-like kinase, sequence (P53350 whole entry): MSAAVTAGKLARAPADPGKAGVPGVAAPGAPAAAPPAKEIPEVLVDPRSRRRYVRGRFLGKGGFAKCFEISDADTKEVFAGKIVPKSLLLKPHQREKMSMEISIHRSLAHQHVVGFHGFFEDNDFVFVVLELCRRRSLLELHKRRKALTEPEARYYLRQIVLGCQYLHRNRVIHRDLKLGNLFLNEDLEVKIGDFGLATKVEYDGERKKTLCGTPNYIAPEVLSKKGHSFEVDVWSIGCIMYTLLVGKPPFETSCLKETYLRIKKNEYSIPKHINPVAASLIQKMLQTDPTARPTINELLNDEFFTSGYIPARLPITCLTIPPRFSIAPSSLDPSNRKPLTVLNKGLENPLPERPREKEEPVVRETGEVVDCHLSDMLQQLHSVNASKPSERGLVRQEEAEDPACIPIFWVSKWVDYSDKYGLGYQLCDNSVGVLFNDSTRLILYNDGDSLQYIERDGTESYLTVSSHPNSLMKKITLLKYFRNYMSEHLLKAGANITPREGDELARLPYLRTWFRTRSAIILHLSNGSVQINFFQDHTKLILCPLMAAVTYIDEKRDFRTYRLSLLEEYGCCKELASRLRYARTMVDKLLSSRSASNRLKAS

PI3K-Beta, sequence (P42338 whole entry, species assumed): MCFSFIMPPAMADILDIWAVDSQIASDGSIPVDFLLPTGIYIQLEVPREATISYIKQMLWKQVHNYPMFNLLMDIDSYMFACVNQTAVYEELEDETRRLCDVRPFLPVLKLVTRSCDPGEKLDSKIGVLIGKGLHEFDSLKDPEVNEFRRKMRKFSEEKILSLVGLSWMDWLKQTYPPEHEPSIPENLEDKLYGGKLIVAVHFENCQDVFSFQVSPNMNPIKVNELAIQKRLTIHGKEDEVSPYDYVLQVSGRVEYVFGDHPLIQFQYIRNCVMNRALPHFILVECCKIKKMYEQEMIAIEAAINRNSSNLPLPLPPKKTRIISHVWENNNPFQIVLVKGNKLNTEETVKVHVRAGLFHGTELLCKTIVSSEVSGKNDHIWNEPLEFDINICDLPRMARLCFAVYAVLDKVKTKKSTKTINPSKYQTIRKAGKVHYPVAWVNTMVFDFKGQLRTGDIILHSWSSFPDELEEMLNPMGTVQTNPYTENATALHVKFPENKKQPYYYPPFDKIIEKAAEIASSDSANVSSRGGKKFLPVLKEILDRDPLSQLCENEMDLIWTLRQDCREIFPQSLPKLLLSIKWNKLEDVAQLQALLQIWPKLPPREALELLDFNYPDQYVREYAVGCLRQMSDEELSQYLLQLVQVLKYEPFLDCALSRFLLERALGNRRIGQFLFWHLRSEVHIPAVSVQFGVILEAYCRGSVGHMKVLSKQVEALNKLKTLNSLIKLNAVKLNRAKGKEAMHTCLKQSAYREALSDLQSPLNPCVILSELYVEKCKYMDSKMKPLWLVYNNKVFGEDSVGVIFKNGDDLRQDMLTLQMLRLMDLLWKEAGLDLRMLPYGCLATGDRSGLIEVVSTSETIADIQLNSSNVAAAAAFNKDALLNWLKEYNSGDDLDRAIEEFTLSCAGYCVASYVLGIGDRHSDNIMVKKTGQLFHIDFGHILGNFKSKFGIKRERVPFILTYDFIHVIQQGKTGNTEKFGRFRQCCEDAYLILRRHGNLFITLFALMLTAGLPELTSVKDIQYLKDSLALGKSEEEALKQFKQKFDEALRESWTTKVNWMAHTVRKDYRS
PI3K-Beta, sequence (P27986 whole entry partner, species assumed): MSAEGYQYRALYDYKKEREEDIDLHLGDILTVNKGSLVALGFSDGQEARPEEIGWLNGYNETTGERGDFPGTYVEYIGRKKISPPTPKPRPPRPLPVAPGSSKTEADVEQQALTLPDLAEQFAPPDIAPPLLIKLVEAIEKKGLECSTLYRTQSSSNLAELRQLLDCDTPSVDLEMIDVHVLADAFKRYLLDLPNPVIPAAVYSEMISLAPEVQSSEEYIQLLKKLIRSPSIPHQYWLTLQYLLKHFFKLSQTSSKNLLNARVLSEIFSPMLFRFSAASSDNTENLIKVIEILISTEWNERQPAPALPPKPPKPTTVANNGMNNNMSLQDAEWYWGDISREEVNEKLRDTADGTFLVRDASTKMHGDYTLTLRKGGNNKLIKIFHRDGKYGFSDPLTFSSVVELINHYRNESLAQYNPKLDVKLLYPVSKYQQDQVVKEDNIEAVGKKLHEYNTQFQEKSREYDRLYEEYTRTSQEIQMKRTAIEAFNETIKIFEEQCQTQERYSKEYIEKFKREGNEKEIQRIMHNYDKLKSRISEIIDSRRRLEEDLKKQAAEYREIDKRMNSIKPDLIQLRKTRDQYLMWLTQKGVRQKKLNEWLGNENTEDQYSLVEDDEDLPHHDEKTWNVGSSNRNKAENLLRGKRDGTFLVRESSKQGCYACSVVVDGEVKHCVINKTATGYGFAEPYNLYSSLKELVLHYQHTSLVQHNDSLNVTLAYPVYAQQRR

C[C@]12COC(=O)c3coc(c31)C(=O)c1ccccc12 [Compound 47]
activity against PI3K-Beta (PI3K-Beta): sub-micromolar

CC12c3ccccc3C(=O)c3occ(c31)CC[C@H]2O (stereo in doubt) [Compound 19-Syn, 1-Hydroxy-10b-methyl-1,2,3,10b-tetrahydro-5-oxa-acephenanthrylen-6-one]
stability in a refrigerator ([1]; refrigerator): stable in a refrigerator for several weeks | stability at room temperature ([1]; room temperature, prolonged periods, isolated brown oils): Neither isomer was stable at room temperature for prolonged periods

COC[C@H]1OC(=O)c2coc3c2[C@@]1(C)C1=C(C3=O)[C@@H]2CC[C@H](O)[C@@]2(C)C[C@H]1OC(C)=O [17β-OH wortmannin]
IC50 (PI3-kinase): 0.5 nM

COC[C@H]1OC(=O)c2coc3c2C1(C)C1=C(C3=O)[C@@H]2CCC(=O)C2(C)C[C@H]1OC(C)=O (some centres unmarked) [wortmannin]
inhibition of mammalian Polo-like kinase [2]: inhibit
